In patent US12370143B2, “Compound or salt thereof and lipid particles” (FUJIFILM Corporation, priority 2018, dated 2025):

Assays:
[1] = tested on: DMS273 cells constantly expressing Luc; experiment: Target reporter protein (Luc) knockdown in cell, reporter protein assay; assay type: cell-based; conditions: Homo sapiens, DMS-273
Procedure: The nucleic acid lipid particles prepared by the same method as that in <Preparation of nucleic acid lipid particles> by using the compounds described in Table 3 were evaluated by reporter assay by the following method.
By using pGL4.50 Luc2 (E1310 Promega), DMS273 cells (human small cell lung cancer) (European Collection of Authenticated Cell Cultures) constantly expressing Luc were prepared. RPMI (Gibco) (10% FBS (Gibco), 1% Penicillin-Streptomycin (Gibco), and 200 μg/mL Hygromycin (Wako)) was used as a culture medium. DMS273 cells (2.0×10^3) constantly expressing luciferase (Luc) were seeded in a 96-well plate and cultured in a 5% CO2 incubator for 24 hours, and then the medium was replaced. Then, 10 μL of each of the dispersion liquids of lipid particles diluted with PBS (Gibco) to yield a concentration of 1 to 1,000 nmol/L was added to the 96-well plate, and the final concentration was adjusted to 0.1 to 100 nmol/L (total amount of liquid: 110 μl). Thereafter, the cells were cultured in a 5% CO2 incubator for 24 hours, the medium was then replaced, and the cells were further cultured for 24 hours.
After the viable cell count was determined, the expression amount of Luc was quantified using a Steady Glo assay kit (Promega), and the knockdown efficiency was calculated according to the following equation. Then, the IC50 concentration at which the expression amount of Luc was knocked down to 50% was calculated.

[2] = Particle size of nucleic acid lipid particles (Luc2-siRNA); assay type: physicochemical; conditions: compound/DSPC/cholesterol/DMG-PEG2000 50/10/38.5/1.5
Procedure: By using the dispersion liquid of lipid particles as it was, the particle size of the lipid particles was measured using a zeta potential/particle size measurement system ELS-Z2 (Otsuka Electronics Co., Ltd.).
(§1) The compounds described in Table 2, L-α-distearoylphosphatidylcholine (trade name: COATSOME® MC-8080; NOF corporation), cholesterol (trade name: Choesterol HP; NIPPON FINE CHEMICAL CO., LTD.), and 1,2-dimyristoyl-rac-glycero-3-(methylpolyoxyethylene 2000) (hereinafter, called DMG-PEG2000) (trade name: SUNBRIGHT® GM-020; NOF corporation) were dissolved in ethanol at a molar ratio of 50/10/38.5/1.5 such that the total lipid concentration became 20 mmol/L, thereby obtaining an oil phase.
(§2) An aqueous nucleic acid solution obtained by dissolving 5 mg of Luc2-siRNA having the sequence described in Biomacromolecules (2013) 14, p. 3905 in 1 mL of sterile water was diluted with 10 mmol/L acetate buffer having a pH 4 such that the nucleic acid concentration became 19.7 μmol/L, thereby obtaining a water phase. Then, the water phase and the oil phase were mixed together by a micromixer (see JP5288254B) using a syringe pump such that the volume ratio of water phase:oil phase became 3:1 (final ratio of siRNA/lipid=339 (mol/mol)), and the mixed solution was diluted 2× with PBS, thereby obtaining a dispersion liquid of nucleic acid lipid particles. The dispersion liquid was dialyzed (Slide-A-Lyzer G2, MWCO: 10 kD, Thermo Fisher Scientific) using a phosphate buffered saline such that ethanol was removed, thereby obtaining nucleic acid lipid particles.
The particle size of the nucleic acid lipid particles was measured by the same method as that in <Preparation of lipid particles>.

[3] = Encapsulation rate of siRNA in nucleic acid lipid particles (Luc2-siRNA); assay type: physicochemical; conditions: compound/DSPC/cholesterol/DMG-PEG2000 50/10/38.5/1.5
Procedure: as §1, §2
A 3 mol/L aqueous sodium acetate solution (30 μL) and 9 μL of glycogen were added to 60 μL of the lipid particles retaining nucleic acids, and then 1.5 mL of ethanol was added thereto such that only the nucleic acids were precipitated while the lipid was dissolved. Then, the supernatant was removed by centrifugation. After the precipitates were air-dried for 15 minutes or longer, water was added thereto such that the precipitates were redissolved, and the concentration thereof was measured using Nanodrop NF1000 (Thermo Fisher Scientific), thereby quantifying the total nucleic acid concentration.
The nucleic acid concentration was quantified using a Quant-iT RiboGreen RNA Assay Kit (Thermo Fisher Scientific) according to the protocol. First, a 20×TE buffer included in the above kit was diluted with water, thereby obtaining a 1×TE buffer. TE represents Tris/EDTA (ethylenediaminetetraacetic acid). In order to quantify only the nucleic acid in the outer water phase, the dispersion liquid of lipid particles retaining nucleic acids was diluted 10,000× with the 1×TE buffer.
The 10,000× diluted dispersion liquid of lipid particles (100 μL) was put in a 96-well plate, then 100 μL of a RiboGreen reagent (reagent included in the Quanti-iT Ribogreen RNA Assay Kit described above) diluted 2000× with the 1×TE buffer was added to a sample, and fluorescence (excitation wavelength: 485 nm, fluorescence wavelength: 535 nm) was measured using a plate reader Infinit EF200 (TECAN), thereby quantifying the nucleic acid concentration in the outer water phase.
By using the total nucleic acid concentration obtained through the above steps and the quantified nucleic acid concentration in the outer water phase, the nucleic acid encapsulation rate of the nucleic acid lipid particles was calculated according to the following Equation. Nucleic acid encapsulation rate (%)=(total nucleic acid concentration−nucleic acid concentration in outer water phase)/total nucleic acid concentration×100 The results are shown in Table 2.

CCCCCCCC/C=C\CCCCCCCC(=O)OCCCCCCC(CCCCCCOC(=O)CCCCCCC/C=C\CCCCCCCC)OC(=O)OCCN(CC)CCN(C)C [Example 36, 7-(((2-((2-(dimethylamino)ethyl)(ethyl)amino)ethoxy)carbonyl)oxy)tridecane-1,13-diyldioleate]
IC50 [1]: 11 nM

CCCCC/C=C\C/C=C\CCCCCCCCC(CCCCCCCC/C=C\C/C=C\CCCCC)OC(=O)OCCN(CCN(C)CCC)C(C)C [Example 63, (6Z, 9Z, 28Z, 31Z)-heptatriaconta-6,9,28,31-tetraen-19-yl(2-(isopropyl(2-(methyl(propyl)amino)ethyl)amino)ethyl)carbonate]
Particle size (nm) [2]: 65.8 nm
Nucleic acid encapsulation rate [3]: 79%

CCCCC/C=C\C/C=C\CCCCCCCCC(CCCCCCCC/C=C\C/C=C\CCCCC)OC(=O)OCCN(CCN(C)CC)C(C)(C)C [Example 79, 2-(tert-Butyl(2-(ethyl(methyl)amino)ethyl)amino)ethyl((6Z,9Z,28Z,31Z)-heptatriaconta-6,9,28,31-tetraen-19-yl)carbonate]
Particle size (nm) [2]: 65.5 nm
Nucleic acid encapsulation rate [3]: 81%

CCCCCCC(CCCC)COC(=O)CCCC(CCCCCC)OC(=O)OCCN(CC)CCN(CC)CC (stereo not shown) [Example 80, 2-butyloctyl 3,6-diethyl-12-hexyl-10-oxo-9,11-dioxa-3,6-diazahexadecan-16-oate]
Particle size (nm) [2]: 98.7 nm
Nucleic acid encapsulation rate [3]: 61%

CCCCCCC(CCCC)COC(=O)CCCC(CCCCCC)OC(=O)OCCN(CCN(CC)CC)C(C)C (stereo not shown) [Example 81, 2-Butyloctyl 3-ethyl-12-hexyl-6-isopropyl-10-oxo-9,11-dioxa-3,6-diazahexadecan-16-oate]
Particle size (nm) [2]: 102.6 nm
Nucleic acid encapsulation rate [3]: 49%

CCCCCCCCC(CCCCCC)COC(=O)CCCC(CCCCCC)OC(=O)OCCN(CC)CCN(CC)CC (stereo not shown) [Example 82, 2-Hexyldecyl 3,6-diethyl-12-hexyl-10-oxo-9,11-dioxa-3,6-diazahexadecan-16-oate]
Particle size (nm) [2]: 77 nm
Nucleic acid encapsulation rate [3]: 78%

CCCCCCC(CCCC)COC(=O)CCCCCCCCC(CCCCCC)OC(=O)OCCN(CCO)CCN(CC)CC (stereo not shown) [Example 85, 2-Butyloctyl 3-ethyl-12-hexyl-6-(2-hydroxyethyl)-10-oxo-9,11-dioxa-3,6-diazahenicosan-21-oate]
Particle size (nm) [2]: 246.6 nm
Nucleic acid encapsulation rate [3]: 86%

CCCCCCC(CCCC)COC(=O)CCCCCCCCC(CCCCCC)OC(=O)OCCN(CCO)CCCN(CC)CC (stereo not shown) [Example 90, 2-Butyloctyl 3-ethyl-13-hexyl-7-(2-hydroxyethyl)-11-oxo-10,12-dioxa-3,7-diazadocosan-22-oate]
Particle size (nm) [2]: 169.3 nm
Nucleic acid encapsulation rate [3]: 60%

CCCCCCC(CCCC)COC(=O)CCCCCCC(CCCCCC)OC(=O)OCCN(CCN(CC)CC)C(C)C (stereo not shown) [Example 92, 2-Butyloctyl 3-ethyl-12-hexyl-6-isopropyl-10-oxo-9,11-dioxa-3,6-diazanonadecan-19-oate]
Particle size (nm) [2]: 90.5 nm
Nucleic acid encapsulation rate [3]: 73%

CCCCCCC(CCCC)COC(=O)CCCCC(CCCCCC)OC(=O)OCCN(CCN(CC)CC)C(C)C (stereo not shown) [Example 95, 2-Butyloctyl 3-ethyl-12-hexyl-6-isopropyl-10-oxo-9,11-dioxa-3,6-diazaheptadecan-17-oate]
Particle size (nm) [2]: 95.5 nm
Nucleic acid encapsulation rate [3]: 83%

CCCCCCCCC(CCCCCC)COC(=O)CCCCC(CCCCCC)OC(=O)OCCN(CCN(CC)CC)C(C)C (stereo not shown) [Example 96, 2-Hexyldecyl 3-ethyl-12-hexyl-6-isopropyl-10-oxo-9,11-dioxa-3,6-diazaheptadecan-17-oate]
Particle size (nm) [2]: 72.9 nm
Nucleic acid encapsulation rate [3]: 88%

CCCCCCCCC(CCCCCC)COC(=O)CCCCCCCCC(CCCCCC)OC(=O)OCCN(CCO)CCN(CC)CC (stereo not shown) [Example 97, 2-Hexyldecyl 3-ethyl-12-hexyl-6-(2-hydroxyethyl)-10-oxo-9,11-dioxa-3,6-diazahenicosan-21-oate]
Particle size (nm) [2]: 142 nm
Nucleic acid encapsulation rate [3]: 82%

CCCCCCCCC(CCCCCC)COC(=O)CCC(CCCCCC)OC(=O)OCCN(CCN(CC)CC)C(C)C (stereo not shown) [Example 114, 2-Hexyldecyl 3-ethyl-12-hexyl-6-isopropyl-10-oxo-9,11-dioxa-3,6-diazapentadecan-15-oate]
Particle size (nm) [2]: 80.1 nm
Nucleic acid encapsulation rate [3]: 69%

CCCCCCCC/C=C\CCCCCCCCOC(=O)CCCC(CCCCCC)OC(=O)OCCN(CCN(CC)CC)C(C)C (stereo not shown) [Example 115, (Z)-octadec-9-en-1-yl 3-ethyl-12-hexyl-6-isopropyl-10-oxo-9,11-dioxa-3,6-diazahexadecan-16-oate]
Particle size (nm) [2]: 88.6 nm
Nucleic acid encapsulation rate [3]: 69%

CCCCCCC(CCCCCCCCC(=O)OCCC(CCCCC)CCCCC)OC(=O)OCCN(CCO)CCN(CC)CC (stereo not shown) [Example 123, 3-Pentyloctyl 3-ethyl-12-hexyl-6-(2-hydroxyethyl)-10-oxo-9,11-dioxa-3,6-diazahenicosan-21-oate]
Particle size (nm) [2]: 257 nm
Nucleic acid encapsulation rate [3]: 66%

CCCCCCCCC(CCCCCC)COC(=O)CCCCCCCCC(CCCCC)OC(=O)OCCN(CCN(CC)CC)C(C)C (stereo not shown) [Example 127, 2-Hexyldecyl 3-ethyl-6-isopropyl-10-oxo-12-pentyl-9,11-dioxa-3,6-diazahenicosan-21-oate]
Particle size (nm) [2]: 80.7 nm
Nucleic acid encapsulation rate [3]: 71%

CCCCCCC(CCCCCCCCC(=O)OCC(CCCCC)CCCCC)OC(=O)OCCN(CCO)CCN(CC)CC (stereo not shown) [Example 128, 2-Pentylheptyl 3-ethyl-12-hexyl-6-(2-hydroxyethyl)-10-oxo-9,11-dioxa-3,6-diazahenicosan-21-oate]
Particle size (nm) [2]: 255 nm
Nucleic acid encapsulation rate [3]: 62%

CCCCCCCCC(CCCCCC)COC(=O)CCCCCCCCC(CCCCC)OC(=O)OCCN(CCO)CCN(CC)CC (stereo not shown) [Example 131, 2-Hexyldecyl 3-ethyl-6-(2-hydroxyethyl)-10-oxo-12-pentyl-9,11-dioxa-3,6-diazahenicosan-21-oate]
Particle size (nm) [2]: 291 nm
Nucleic acid encapsulation rate [3]: 41%

CCCCCCCCC(CCCCCC)COC(=O)CCCCCCCCC(CCCCC)OC(=O)OCCN(CCOC(=O)CCCCCCC)CCN(CC)CC (stereo not shown) [Example 132, 2-Hexyldecyl 3-ethyl-6-(2-(octanoyloxy)ethyl)-10-oxo-12-pentyl-9,11-dioxa-3,6-diazahenicosan-21-oate]
Particle size (nm) [2]: 98.4 nm
Nucleic acid encapsulation rate [3]: 76%
